Read-outs that look alike come from different tables or passages of the source.
Assays:
[1] = target: MEK4 (Homo sapiens, UniProt P45985); details: 1 µM; binder
[2] = target: PLK3 (Homo sapiens, UniProt Q9H4B4); details: 1 µM; binder
[3] = target: EGFR(G719S) (Homo sapiens, UniProt P00533, G719S); details: 1 µM; binder
[4] = target: FER (Homo sapiens, UniProt P16591); details: 1 µM; binder
[5] = target: ERK3 (Homo sapiens, UniProt Q16659); details: 1 µM; binder
[6] = target: TSSK3 (Homo sapiens, UniProt Q96PN8); details: 1 µM; binder
[7] = target: IKK-alpha (Homo sapiens, UniProt O15111); details: 1 µM; binder
[8] = target: ERBB3 (Homo sapiens, UniProt P21860); details: 1 µM; binder
[9] = target: HASPIN (Homo sapiens, UniProt Q8TF76); details: 1 µM; binder
[10] = target: CDKL2 (Homo sapiens, UniProt Q92772); details: 1 µM; binder
[11] = target: CSNK2A1 (Homo sapiens, UniProt P68400); details: 1 µM; binder
[12] = target: FLT3(D835H) (Homo sapiens, UniProt P36888, D835H); details: 1 µM; binder
[13] = target: CDC2L2 (Homo sapiens, UniProt Q9UQ88); details: 1 µM; binder
[14] = target: PAK7 (Homo sapiens, UniProt Q9P286); details: 1 µM; binder
[15] = target: ERK1 (Homo sapiens, UniProt P27361); details: 1 µM; binder
[16] = target: ABL1(Q252H) (Homo sapiens, UniProt P00519, Q252H); details: 1 µM, binder
[17] = target: BLK (Homo sapiens, UniProt P51451); details: 1 µM; binder
[18] = target: CAMKK2 (Homo sapiens, UniProt Q96RR4); details: 1 µM; binder
[19] = target: PIK3CA(E545K) (Homo sapiens, UniProt P42336, E545K); details: 1 µM; binder
[20] = target: GSK3A (Homo sapiens, UniProt P49840); details: 1 µM; binder
[21] = target: EGFR(G719C) (Homo sapiens, UniProt P00533, G719C); details: 1 µM; binder
[22] = target: PIK3CA(M1043I) (Homo sapiens, UniProt P42336, M1043I); details: 1 µM; binder
[23] = target: LOK (Homo sapiens, UniProt O94804); details: 1 µM; binder
[24] = target: TGFBR1 (Homo sapiens, UniProt P36897); details: 1 µM; binder
[25] = target: GAK (Homo sapiens, UniProt O14976); details: 1 µM; binder
[26] = target: CAMK2A (Homo sapiens, UniProt Q9UQM7); details: 1 µM; binder
[27] = target: ITK (Homo sapiens, UniProt Q08881); details: 1 µM; binder
[28] = target: MET(Y1235D) (Homo sapiens, UniProt P08581, Y1235D); details: 1 µM; binder
[29] = target: MAP3K2 (Homo sapiens, UniProt Q9Y2U5); details: 1 µM; binder
[30] = target: MERTK (Homo sapiens, UniProt Q12866); details: 1 µM; binder

Chain of ERK1 (P27361 whole entry): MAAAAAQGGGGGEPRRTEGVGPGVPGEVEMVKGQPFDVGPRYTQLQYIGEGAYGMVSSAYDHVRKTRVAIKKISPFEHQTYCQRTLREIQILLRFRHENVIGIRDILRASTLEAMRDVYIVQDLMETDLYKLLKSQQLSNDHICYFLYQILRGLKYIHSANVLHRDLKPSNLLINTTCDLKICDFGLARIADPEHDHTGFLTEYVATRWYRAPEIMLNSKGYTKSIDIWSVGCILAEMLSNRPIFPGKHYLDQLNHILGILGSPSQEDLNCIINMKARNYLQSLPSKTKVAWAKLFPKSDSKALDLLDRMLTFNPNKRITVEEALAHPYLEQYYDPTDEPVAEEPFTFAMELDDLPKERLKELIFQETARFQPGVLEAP
Chain of LOK (O94804 whole entry): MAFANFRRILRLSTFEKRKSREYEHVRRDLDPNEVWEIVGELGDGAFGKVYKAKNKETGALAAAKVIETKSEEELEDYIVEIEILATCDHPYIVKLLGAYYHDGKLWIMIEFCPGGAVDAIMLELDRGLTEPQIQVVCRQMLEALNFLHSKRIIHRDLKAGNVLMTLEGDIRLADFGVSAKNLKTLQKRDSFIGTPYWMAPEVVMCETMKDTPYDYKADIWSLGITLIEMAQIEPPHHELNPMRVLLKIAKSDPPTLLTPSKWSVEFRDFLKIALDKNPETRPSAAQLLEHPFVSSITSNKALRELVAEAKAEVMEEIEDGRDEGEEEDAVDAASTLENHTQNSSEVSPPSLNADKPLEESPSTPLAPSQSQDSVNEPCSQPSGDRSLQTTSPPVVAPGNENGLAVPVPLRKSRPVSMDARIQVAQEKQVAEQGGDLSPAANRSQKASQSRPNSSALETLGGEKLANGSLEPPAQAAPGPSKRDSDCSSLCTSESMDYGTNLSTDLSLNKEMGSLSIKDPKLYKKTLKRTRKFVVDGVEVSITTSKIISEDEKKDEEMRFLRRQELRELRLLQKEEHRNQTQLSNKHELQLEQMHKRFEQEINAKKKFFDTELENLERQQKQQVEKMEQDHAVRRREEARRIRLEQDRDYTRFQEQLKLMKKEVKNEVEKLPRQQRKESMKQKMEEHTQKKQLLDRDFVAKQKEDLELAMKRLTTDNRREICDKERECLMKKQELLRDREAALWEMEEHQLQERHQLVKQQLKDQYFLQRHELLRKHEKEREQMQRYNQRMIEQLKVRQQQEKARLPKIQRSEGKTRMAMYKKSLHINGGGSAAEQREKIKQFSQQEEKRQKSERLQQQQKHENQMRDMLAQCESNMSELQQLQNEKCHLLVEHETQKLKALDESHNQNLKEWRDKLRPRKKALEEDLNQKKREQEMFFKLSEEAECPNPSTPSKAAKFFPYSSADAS
Chain of IKK-alpha (O15111 whole entry): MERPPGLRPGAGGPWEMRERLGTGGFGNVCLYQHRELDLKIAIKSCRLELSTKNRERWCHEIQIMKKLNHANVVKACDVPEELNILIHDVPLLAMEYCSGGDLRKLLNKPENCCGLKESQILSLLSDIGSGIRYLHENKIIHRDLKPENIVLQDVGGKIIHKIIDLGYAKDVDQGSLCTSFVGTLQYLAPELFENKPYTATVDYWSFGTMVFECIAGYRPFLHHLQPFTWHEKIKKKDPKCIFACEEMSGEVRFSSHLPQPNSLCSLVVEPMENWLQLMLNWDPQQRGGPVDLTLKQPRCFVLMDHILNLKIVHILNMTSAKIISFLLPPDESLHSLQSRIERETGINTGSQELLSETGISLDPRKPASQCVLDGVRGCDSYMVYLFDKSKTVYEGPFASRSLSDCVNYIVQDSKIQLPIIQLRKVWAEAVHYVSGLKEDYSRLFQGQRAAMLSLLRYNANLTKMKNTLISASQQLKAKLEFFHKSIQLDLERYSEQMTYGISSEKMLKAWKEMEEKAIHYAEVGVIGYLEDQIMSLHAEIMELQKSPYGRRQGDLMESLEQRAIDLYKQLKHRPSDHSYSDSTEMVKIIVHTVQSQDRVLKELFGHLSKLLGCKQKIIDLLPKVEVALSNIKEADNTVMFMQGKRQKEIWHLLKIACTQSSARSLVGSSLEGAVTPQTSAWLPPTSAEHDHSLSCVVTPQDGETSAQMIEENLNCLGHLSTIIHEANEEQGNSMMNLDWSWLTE
Chain of CAMKK2 (Q96RR4 whole entry): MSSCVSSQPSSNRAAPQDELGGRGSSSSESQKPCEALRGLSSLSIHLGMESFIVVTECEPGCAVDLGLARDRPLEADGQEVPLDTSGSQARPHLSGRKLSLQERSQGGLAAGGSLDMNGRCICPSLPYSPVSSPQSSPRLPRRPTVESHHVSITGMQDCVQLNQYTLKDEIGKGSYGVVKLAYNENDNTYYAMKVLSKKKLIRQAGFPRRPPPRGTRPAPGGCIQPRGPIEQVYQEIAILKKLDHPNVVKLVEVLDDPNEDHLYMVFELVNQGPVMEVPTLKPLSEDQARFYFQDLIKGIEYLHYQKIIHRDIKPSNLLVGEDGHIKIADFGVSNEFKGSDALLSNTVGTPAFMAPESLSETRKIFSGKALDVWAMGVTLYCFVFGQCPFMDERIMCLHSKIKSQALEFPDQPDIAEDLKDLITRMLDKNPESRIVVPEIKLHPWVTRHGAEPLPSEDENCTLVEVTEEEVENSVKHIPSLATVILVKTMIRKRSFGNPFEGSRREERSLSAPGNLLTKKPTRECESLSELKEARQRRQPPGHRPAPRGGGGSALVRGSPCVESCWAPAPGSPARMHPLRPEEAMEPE
Chain of ERK3 (Q16659 whole entry): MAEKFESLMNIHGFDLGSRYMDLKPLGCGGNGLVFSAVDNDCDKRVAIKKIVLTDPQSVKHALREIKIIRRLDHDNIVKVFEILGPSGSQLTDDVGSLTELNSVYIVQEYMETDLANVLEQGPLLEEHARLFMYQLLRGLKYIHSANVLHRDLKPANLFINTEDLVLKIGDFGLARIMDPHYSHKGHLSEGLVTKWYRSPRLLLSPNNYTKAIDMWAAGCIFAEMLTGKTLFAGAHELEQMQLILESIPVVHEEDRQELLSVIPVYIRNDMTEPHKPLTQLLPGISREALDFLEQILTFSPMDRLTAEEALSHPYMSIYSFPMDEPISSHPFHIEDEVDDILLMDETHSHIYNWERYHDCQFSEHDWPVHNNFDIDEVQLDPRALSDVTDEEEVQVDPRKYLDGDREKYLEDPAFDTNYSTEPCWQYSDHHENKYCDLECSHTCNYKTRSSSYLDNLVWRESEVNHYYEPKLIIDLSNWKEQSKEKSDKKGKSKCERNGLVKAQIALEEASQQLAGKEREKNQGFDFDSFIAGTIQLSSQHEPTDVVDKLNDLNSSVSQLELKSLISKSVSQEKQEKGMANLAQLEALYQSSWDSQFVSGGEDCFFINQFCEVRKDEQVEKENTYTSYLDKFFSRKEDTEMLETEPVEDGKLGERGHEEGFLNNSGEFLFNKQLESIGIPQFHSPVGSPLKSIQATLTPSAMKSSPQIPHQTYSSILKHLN
Chain of GAK (O14976 whole entry): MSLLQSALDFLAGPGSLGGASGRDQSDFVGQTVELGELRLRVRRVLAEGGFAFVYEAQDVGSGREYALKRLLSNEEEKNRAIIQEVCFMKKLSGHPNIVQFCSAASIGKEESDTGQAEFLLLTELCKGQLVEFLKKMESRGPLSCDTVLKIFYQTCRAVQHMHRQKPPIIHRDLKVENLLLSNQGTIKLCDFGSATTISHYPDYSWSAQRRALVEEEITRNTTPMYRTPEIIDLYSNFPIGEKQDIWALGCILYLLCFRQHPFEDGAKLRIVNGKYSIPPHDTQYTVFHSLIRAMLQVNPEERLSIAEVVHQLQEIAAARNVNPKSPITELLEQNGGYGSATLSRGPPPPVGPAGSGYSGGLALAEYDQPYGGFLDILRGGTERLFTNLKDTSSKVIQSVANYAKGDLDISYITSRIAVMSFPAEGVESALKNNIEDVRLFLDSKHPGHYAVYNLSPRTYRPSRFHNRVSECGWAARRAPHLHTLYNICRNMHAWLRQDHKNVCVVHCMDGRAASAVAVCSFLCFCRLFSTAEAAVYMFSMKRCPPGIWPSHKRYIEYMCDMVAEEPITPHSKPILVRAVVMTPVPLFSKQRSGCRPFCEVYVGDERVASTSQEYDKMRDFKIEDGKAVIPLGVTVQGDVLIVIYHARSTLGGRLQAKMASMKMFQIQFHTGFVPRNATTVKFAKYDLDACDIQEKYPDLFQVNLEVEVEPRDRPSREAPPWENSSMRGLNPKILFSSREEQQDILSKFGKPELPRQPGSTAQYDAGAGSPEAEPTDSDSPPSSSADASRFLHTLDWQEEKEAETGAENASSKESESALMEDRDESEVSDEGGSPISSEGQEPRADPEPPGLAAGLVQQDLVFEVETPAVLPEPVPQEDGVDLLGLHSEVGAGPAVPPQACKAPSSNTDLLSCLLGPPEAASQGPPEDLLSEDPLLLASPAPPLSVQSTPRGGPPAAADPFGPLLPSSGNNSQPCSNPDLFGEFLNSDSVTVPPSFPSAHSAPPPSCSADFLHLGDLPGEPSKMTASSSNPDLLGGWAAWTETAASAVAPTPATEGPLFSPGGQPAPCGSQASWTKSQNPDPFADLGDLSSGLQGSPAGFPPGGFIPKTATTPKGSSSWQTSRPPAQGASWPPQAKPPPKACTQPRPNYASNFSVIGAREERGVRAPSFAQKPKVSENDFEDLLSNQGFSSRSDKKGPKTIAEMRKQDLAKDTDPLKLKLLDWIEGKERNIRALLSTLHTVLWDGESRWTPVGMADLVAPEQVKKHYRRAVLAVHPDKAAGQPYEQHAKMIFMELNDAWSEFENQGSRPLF
Chain of TSSK3 (Q96PN8 whole entry): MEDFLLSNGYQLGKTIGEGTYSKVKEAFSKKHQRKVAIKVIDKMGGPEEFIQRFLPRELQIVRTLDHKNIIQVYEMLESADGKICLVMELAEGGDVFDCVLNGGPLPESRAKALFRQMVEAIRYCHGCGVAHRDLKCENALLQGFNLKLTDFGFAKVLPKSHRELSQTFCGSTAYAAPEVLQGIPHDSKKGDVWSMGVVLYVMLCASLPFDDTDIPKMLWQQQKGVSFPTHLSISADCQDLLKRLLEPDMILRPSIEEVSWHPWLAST

CNc1ncc2cc(-c3ccc(-c4cccc(C)n4)cc3Cl)c(=O)n(C[C@H]3OC[C@H](N)CO3)c2n1 [compound 6, G-5555]
Percent Control [1]: 9.6% | Percent Control [2]: 93% | Percent Control [3]: 100% | Percent Control [4]: 100% | Percent Control [5]: 100% | Percent Control [6]: 84% | Percent Control [7]: 98% | Percent Control [8]: 86% | Percent Control [9]: 100% | Percent Control [10]: 58% | Percent Control [11]: 98% | Percent Control [12]: 99% | Percent Control [13]: 100% | Percent Control [14]: 82% | Percent Control [15]: 74% | Percent Control ([16]; nonphosphorylated): 75% | Percent Control ([16]; phosphorylated): 100% | Percent Control [17]: 99% | Percent Control [18]: 100% | Percent Control [19]: 97% | Percent Control [20]: 100% | Percent Control [21]: 100% | Percent Control [22]: 100% | Percent Control [23]: 2.1% | Percent Control [24]: 100% | Percent Control [25]: 1.7% | Percent Control [26]: 88% | Percent Control [27]: 100% | Percent Control [28]: 93% | Percent Control [29]: 67% | Percent Control [30]: 100%
